The values that follow come from patent publication US10265419B2, “Intraoperative determination of nerve location” (Novadaq Technologies ULC, priority 2005, dated 2019).

Structures are written as SMILES.

One series concerns cavernous nerves. Briefly: NIRF imaging of cavernous nerves after intracrural ICG injection in rats. It is filed as in vivo.
The conditions of series [1]: cited from earlier work.

Description for cavernous nerves: The area was examined for retrograde axonal transport at different time points, using a NIRF intraoperative imaging system (SPY®, Novadaq Technologies Inc., Mississauga, Ontario, Canada) that illuminates tissues with a 805 nm laser and captures images with a camera sensitive to infrared fluorescence. Near infrared microscopy and conventional histology were used to confirm the macroscopically identified fluorescent structures. […] (These were specific time points at which examinations were made. […] The fluorescent nerves were then excised.

For `CC1(C)C(/C=C/C=C/C=C/C=C2\N(CCCCS(=O)(=O)O)c3ccc4ccccc4c3C2(C)C)=[N+](CCCCS(=O)(=O)[O-])c2ccc3ccccc3c21` [ICG, indocyanine green], the “time post-injection of highest fluorescence intensity” value in the series on cavernous nerves (NIRF imaging) is 18 and at 24. In the series with cavernous nerves (e.g. 30 days post-injection), the “fluorescence of the cavernous nerves at longer post-injection periods” value is reported as “not detectable”. Also, in series [1] (after intravenous injection), the “metabolism in the body” value is “not metabolized in the body” and the route of excretion entry is on record as “excreted exclusively by the liver”. Further, the “reabsorption from the intestine / enterohepatic recirculation” value in series [1] (in vivo) is “not reabsorbed from the intestine and does not undergo enterohepatic recirculation”.
